The values that follow come from ChEMBL document CHEMBL3091305, “Metabolism-guided discovery of a potent and orally bioavailable urea-based calcimimetic for the treatment of secondary hyperparathyroidism” (Bioorg Med Chem Lett, 2013).

Data set [1] can be described thus: in vivo. As to conditions: Sprague-Dawley, rat, iv, 0.5 mg/kg.
The nature of data set [2]: in vivo. As to conditions: Sprague-Dawley, rat, po, 2 mg/kg.

Molecules are shown by their SMILES.

Compound `CS(=O)(=O)Nc1ccc(-c2csc(NC(=O)N(CCC(c3ccccc3)c3ccccc3)CCN3CCOCC3)n2)cc1` gave a clearance in the data set “in vivo [1]” of 63.3 mL/min/kg.

Compound `NS(=O)(=O)c1ccc(-c2nsc(NC(=O)N(CCC(c3ccc(F)cc3)c3ccc(F)cc3)CCN3CCOCC3)n2)cc1` showed a clearance in “in vivo [1]” of 26.7 mL/min/kg. The same compound gave a bioavailability in “in vivo [2]” of 39%.

Usually clearance stands for the volume of plasma or blood freed of the substance per unit of time. Read a low clearance as inefficient removal. As usually defined, the bioavailability is dose-corrected exposure relative to a reference, in per cent.
